Reference: publication PMC5987880 (The Journal of General Physiology, 2018)
“And” between values parts separate entries of the source, which are not always exact repeats. Equal values may be shown once.

How the values were obtained:
[1] = molecular target: SthK, cyclic nucleotide-gated (CNG) channel from Spirochaeta thermophila, final expression construct SthK_(Δ421–430) (Spirochaeta thermophila); assay: cross-linking
SthK [2] = molecular target: T1, SthK (Spirochaeta thermophila, UniProt G0GA88); assay: Single-channel recordings of purified SthK in horizontal lipid bilayers; type: biochemical
T1 sequence (G0GA88 1-420): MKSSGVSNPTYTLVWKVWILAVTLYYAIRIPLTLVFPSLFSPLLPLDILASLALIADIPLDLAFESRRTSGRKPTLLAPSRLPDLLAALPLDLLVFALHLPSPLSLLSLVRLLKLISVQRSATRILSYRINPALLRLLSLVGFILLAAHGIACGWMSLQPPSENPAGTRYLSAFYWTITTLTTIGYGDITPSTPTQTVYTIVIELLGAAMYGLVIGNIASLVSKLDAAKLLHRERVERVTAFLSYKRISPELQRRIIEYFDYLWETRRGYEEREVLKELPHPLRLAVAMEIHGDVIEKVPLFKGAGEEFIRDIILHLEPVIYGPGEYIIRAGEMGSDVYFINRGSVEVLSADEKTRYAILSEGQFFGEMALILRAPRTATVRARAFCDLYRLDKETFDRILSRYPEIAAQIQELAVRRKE

SthK [3] = molecular target: T1, SthK; assay: 86Rb+ flux; type: biochemical; details: 200 µM cyclic nucleotide, 5:3:2 DOPC:POPG:cardiolipin liposomes
SthK [4] = molecular target: T1, SthK; assay: Sequential-mixing stopped-flow fluorescence Tl+ flux assay with SthK liposomes; type: biochemical
SthK [5] = molecular target: T1, SthK; details: at 100 mV; ref Brams et al. (2014); cited from earlier work
isolated CNBD of MloK1 = details: read-out: Kd for isolated CNBD of MloK1; ref Cukkemane et al., 2007; cited from earlier work
HCN4 = details: read-out: Kd for HCN4; ref Akimoto et al., 2014; cited from earlier work

Compound “SthK, cyclic nucleotide-gated (CNG) channel from Spirochaeta thermophila, final expression construct SthK_(Δ421–430) (natural protein)” has a stoichiometry N [1] of 4.

With `Nc1nc2c(ncn2[C@@H]2O[C@@H]3COP(=O)(O)O[C@H]3[C@H]2O)c(=O)[nH]1` [cGMP, cyclic guanosine monophosphate] the “Open probability Po with cGMP” value (SthK [2]; cGMP alone) was < 0.003.

For `Nc1ncnc2c1ncn2[C@@H]1O[C@@H]2COP(=O)(O)O[C@H]2[C@H]1O` [cAMP, cyclic adenosine monophosphate], the “86Rb+ uptake through SthK liposomes” value (SthK [3]) was “robust cAMP-dependent activity”, the “Time to maximum activation of SthK” value (SthK [4]; 200 µM cAMP) was 2 s and 1 to 2 s and the “Activation time constant τ1” value (SthK [4]; 200 µM cAMP, delay 0.015-10 s, sum of two exponentials (amplitude 0.45)) was “≈ 0.05 s”. For the same compound, the “Activation time constant τ2” value (SthK [4]; 200 µM cAMP, delay 0.015-10 s, sum of two exponentials (amplitude 0.55)) was “≈ 1.04 s”, the “Slow activation phase (as stated in the Discussion)” value (SthK [4]; activation kinetics of SthK) was ~2 s and the “Open probability Po in oocytes” value (SthK [5]) was “≈ 0.14”. The “Open probability Po at 0 mV” value (SthK [2]; cAMP alone, 0 mV) was “≈ 0.1” and the “Hill coefficient nH, bilayer recordings” value (SthK [2]; open probability at 100 mV (Eq. 10)) was 3.

For `Nc1ncnc2c1nc(SCCNc1ccc([N+](=O)[O-])c3nonc13)n2[C@@H]1O[C@@H]2COP(=O)(O)O[C@H]2[C@H]1O` [fcAMP, 8-NBD-cAMP], the Kd (isolated CNBD of MloK1) is given as ~15.9 nM and the Kd (HCN4) is given as 5000 nM.
